“Also recorded” adds a separate entry of the source.

The conditions of data set [1]: rating from cited sources, cited from earlier work.
Data set [2] relates to lean mice. As to the kind of experiment: Body weight and food intake in 10-week old lean mice on chow diet, i.p. injection. To be noted: three weeks. It is filed as in vivo. How it is done: Gambogic acid was administered to 10-week old lean mice on chow diet at 0.5 mg/kg for three weeks by i.p. injections. […] Tanespimycin was administered to 10-week old lean mice on chow diet at 15 mg/kg for three weeks by i.p. injections. […] NVP-AUY922 was administered to 10-week old lean mice on chow diet at 15 mg/kg for three weeks by i.p. injections.

The test system of data set [3] is HFD-fed obese mice. The data set is described as follows: Body weight and food intake in high fat diet (HFD)-fed obese mice, daily i.p. injection. To be noted: three weeks, vs DMSO vehicle. It is filed as in vivo, C57Bl/6J mice. How it is done:
To investigate whether gambogic acid can act as an anti-obesity drug by increasing leptin sensitivity and reducing appetite, C57Bl/6J mice were placed on a high fat diet (HFD; Research Diets, D12451, 45 kcal % fat) feeding for 16 weeks. After establishment of obesity and leptin resistance, mice were administered gambogic acid (at 0.5 mg/kg, in 25 μl DMSO, once per day) and vehicle (DMSO, 25 μl) with intraperitoneal (i.p.) injection. The animals had free access to food and water unless otherwise stated. In all experiments, three days prior to drug administration, the animals went through an acclimation period where they were given DMSO (25 μl) to reduce the effect of stress created by i.p. injection. Following three days acclimation, mice were administered gambogic acid daily i.p. injections at 0.5 mg/kg for three weeks in 25 μl of DMSO as vehicle, whereas the control group received the same volume of DMSO. […] To investigate whether tanespimycin can act as an anti-obesity drug by increasing leptin sensitivity and reducing appetite, C57Bl/6J mice were placed on a high fat diet (HFD; Research Diets, D12451, 45 kcal % fat) feeding for 16 weeks. After establishment of obesity and leptin resistance, mice were administered tanespimycin (at 15 mg/kg, in 25 μl DMSO, once per day) and vehicle (DMSO, 25 μl) with intraperitoneal (i.p.) injection. The animals had free access to food and water unless otherwise stated. In all experiments, three days prior to drug administration, the animals went through an acclimation period where they were given DMSO (25 μ1) to reduce the effect of stress created by i.p. injection. Following three days acclimation, mice were administered tanespimycin daily i.p. injections at 15 mg/kg for three weeks in 25 μl of DMSO as vehicle, whereas the control group received the same volume of DMSO. […] To investigate whether NVP-AUY922 can act as an anti-obesity drug by increasing leptin sensitivity and reducing appetite, C57Bl/6J mice were placed on a high fat diet (HFD; Research Diets, D12451, 45 kcal % fat) feeding for 16 weeks. After establishment of obesity and leptin resistance, mice were administered NVP-AUY922 (at 15 mg/kg, in 25 μl DMSO, once per day) and vehicle (DMSO, 25 μl) with intraperitoneal (i.p.) injection. The animals had free access to food and water unless otherwise stated. In all experiments, three days prior to drug administration, the animals went through an acclimation period where they were given DMSO (25 μ1) to reduce the effect of stress created by i.p. injection. Following three days acclimation, mice were administered NVP-AUY922 daily i.p. injections at 15 mg/kg for three weeks in 25 μl of DMSO as vehicle, whereas the control group received the same volume of DMSO.

For data set [4], the system named is leptin receptor deficient (db/db) mice. The data set is described as follows: Body weight and food intake in leptin receptor deficient (db/db) mice. It is filed as in vivo. To be noted: 0.5 mg/kg once a day. How it is done: To explore whether gambogic acid's effect is leptin dependent, gambogic acid (0.5 mg/kg, once a day, in 25μ1 DMSO) was administered to leptin receptor deficient (db/db) mice.

Where [5] appears, read: 0.5 mg/kg i.p. once per day, 0.5 mg/kg.

In the case of Conjugated linoleic acid, in data set [1], the Safety result is listed as “Possibly safe”. The Effectiveness result in data set [1] (weight loss) is given as “Possibly effective”.

`[Cr]` [Chromium]: in data set [1], the Safety result is “Likely safe”.

As for `CCNC(=O)c1noc(-c2cc(C(C)C)c(O)cc2O)c1-c1ccc(CN2CCOCC2)cc1` [NVP-AUY922], the food intake result in data set [2] (15 mg/kg i.p.) is “failed to induce bodyweight loss or food intake”. Further, the body weight result in data set [2] (15 mg/kg i.p., 15 mg/kg) is “little or no decrease; also recorded: failed to induce bodyweight loss”; in data set [3] (15 mg/kg i.p. once per day), “significantly decreased”.

Turning to `CC(C)=CCC[C@]1(C)C=Cc2c(O)c3c(c(CC=C(C)C)c2O1)O[C@]12C(=C[C@@H]4C[C@H]1C(C)(C)O[C@@]2(C/C=C(/C)C(=O)O)C4=O)C3=O` [gambogic acid], the food intake result in data set [4] is “continued to increase similar to the vehicle treated group”; in data set [2] (0.5 mg/kg i.p., 0.5 mg/kg), “failed to induce bodyweight loss or food intake”; in data set [2] (0.5 mg/kg i.p., listed as SR-03, 0.5 mg/kg), “little or no effect”; in data set [3] (setting [5]), “significantly decreased”; in data set [3] (0.5 mg/kg i.p. once per day, listed as SR-03, 0.5 mg/kg), “significant decrease”. Besides, the body weight entry in data set [4] (0.5 mg/kg) is “continued to increase similar to the vehicle treated group; also recorded: not in db/db mice”; in data set [2] (0.5 mg/kg i.p., 0.5 mg/kg), “little or no decrease; also recorded: failed to induce bodyweight loss”; in data set [3] (setting [5]), “significantly decreased; also recorded: decreased body weight”.

The values above are taken from patent US20170209408A1, “HSP90 INHIBITORS FOR THE TREATMENT OF OBESITY AND METHODS OF USE THEREOF” (The Children's Medical Center Corporation, priority 2014, published 2017).
